Measured values published in patent US20130267516A1, “SUBSTITUTED CYCLOPENTYL-AZINES AS CASR-ACTIVE COMPOUNDS” (LEO PHARMA A/S, priority 2010, published 2013).

Columns and labels:
[1] = Clearance in human liver microsomes; assay type: in vitro ADME; conditions: hepatic extraction ratio; 0.5 μM compound, 0.5 mg/mL microsomes, 1 mM NADPH, 30 min
Protocol: Test compound concentration is 0.5 μM, microsome concentration is 0.5 mg/mL and NADPH concentration is 1 mM in the incubation. The described method is performed by the liquid handling system Tecan RSP and is based on a 96-well format.
Control incubations with test compound without NADPH and test compound without microsomes are conducted to investigate non-CYP mediated metabolism and stability in phosphate buffer at 37° C., respectively.
The human liver microsomal suspension in phosphate buffer is mixed with NADPH. The mixture is pre-heated (7 min) to 37° C. Test compound is added, and the mixture is incubated for 30 minutes. Incubations are run in duplicate. Samples are withdrawn at predetermined stop times and mixed with methanol containing internal standard (IS) to terminate all enzyme activity and precipitate proteins. A control without NADPH (to detect problems such as nonspecific protein binding, heat instability or non-CYP mediated metabolism) and a control without microsomes (for assessing compound stability in the absence of any active enzymes) are tested.
(§1) The percentage of organic solvent in the incubations is less than 1%. Careful inspections of reagents are performed prior to the start of any experiment to ensure all reagents are in solution.
(§2) The 96-well plates are centrifuged. Test compound depletion, using a compound specific LC/MS/MS method, is determined.
The logarithm of the peak area ratios of test compound to internal standard (IS) versus incubation time is plotted in a graph.
The rate constant (k) (min^−1) of test compound depletion is calculated from the linear part of the curve and the half-time (t1/2) in minutes can be calculated from the rate constant (Eq. 2).
Intrinsic clearance (Clint) (mL/min/mg protein) is calculated from: […]
where c is the microsomal protein concentration in mg/mL.
Intrinsic clearance is the maximum ability of the liver to extract a drug in the absence of blood flow restrictions.
Conversion to apparent clearance (Clapp) (mL/min/kg) is done by Eq. 4:
Clapp=Clint×a×b/d (Eq. 4)
where a, b and d are the scaling factors for normalizing Clint to human body weight.
The following human scaling factors are used:
a: 45 (microsomal protein/liver weight (mg/g)) b: 1500 (liver weight (g)) d: 70 (body weight (kg))
Hepatic clearance (Clh) (mL/min/kg) based on the well-stirred model is described as followed:
Clh=(Clapp·Q)/(Clapp+Q) (Eq. 5)
where Q is the liver blood flow in mL/min/kg (20 in humans).
Dividing hepatic clearance with liver blood flow, the hepatic extraction ratio (%) can be calculated:
(§3) Apparent clearance below approximately 10 mL/min/kg human body weight (corresponding to extraction ratio of approx. 33%) is considered as low clearance (high metabolic stability). Apparent intrinsic clearance above approximately 60 mL/min/kg human body weight (corresponding to extraction ratio of approx. 75%) is considered as high clearance (low metabolic stability).

[2] = Clearance in rat hepatocytes; assay type: in vitro ADME; conditions: hepatic extraction ratio; 0.5 μM compound, 1×10^6 cells/mL, 20 min
Protocol: Test compounds and 4 control compounds are tested in duplicate per run. Test compound concentration is 0.5 μM and cell concentration is 1×10^6 cells/mL in the incubation. The described method is performed by the liquid handling system Tecan RSP and is based on a 96-well format.
The liver is collected from a male Spraque-Dawley rat. One liver lobe is cut off and flushed with various buffers to loosen the cells. The cell suspension is washed and centrifuged, and the cell density is adjusted to 1.2×10^6 cells/mL with Krebs-Henseleit buffer, pH 7.4, containing 0.2% bovine serum albumin (BSA). Only cell suspensions with viability above 80% are used.
The cell suspension is pre-heated (20 min) to 37° C. Test compound is added, and the mixture is incubated for 20 minutes. Incubations are run in duplicate. Samples are withdrawn at predetermined stop times and mixed with methanol containing internal standard (IS) to terminate all enzyme activity and precipitate proteins.
as §1, §2
Data analysis is performed as described above in the section “Biological assay for analysis of clearance in human liver microsomes”, with the following modifications:
Intrinsic clearance (Clint) (mL/min/10^6 cells) is calculated from: […]
where c is the cell concentration in 10^6 cells/mL.
The following scaling factors for rat are used for eq. 4:
a: 120 (cells/liver weight (10^6 cells/g)) b: 10 (liver weight (g)) d: 0.25 (body weight (kg))
Liver blood flow in rats (for eq. 5):
as §3, with “25” for “10”, “rat” for “human”, “to an” for “to”, “165” for “60”

Row | Clearance (% Eh) in human liver microsomes [1] | Clearance (% Eh) in rat hepatocytes [2] | SMILES
1 | A (A: Eh < 33%) | B (B: 33% ≦ Eh ≦ 75%) | C[C@@H](N[C@H]1CC[C@@H](c2ccc(NCCNCCO)nc2)C1)c1cccc2ccccc12.O=CO.O=CO.O=CO [Compound 101, 2-[2-[[5-[(1R,3S)-3-[[(1R)-1-(1-Naphthyl)ethyl]amino]cyclopentyl]-2-pyridyl]amino]ethylamino]ethanol]
2 | A (A: Eh < 33%) | A (A: Eh < 33%) | COc1cc([C@@H](C)N[C@H]2CC[C@@H](c3ccc(NC4CCNCC4)nc3)C2)ccc1F [Compound 107, 5-[(1R,3S)-3-[[(1R)-1-(4-Fluoro-3-methoxy-phenyl)ethyl]amino]cyclopentyl]-N-(4-piperidyl)pyridin-2-amine]
3 | A (A: Eh < 33%) | A (A: Eh < 33%) | COc1cc([C@@H](C)N[C@H]2CC[C@@H](c3ccc(N4CCNC(=O)C4)nc3)C2)ccc1F [Compound 109, 4-[5-[(1R,3S)-3-[[(1R)-1-(4-Fluoro-3-methoxy-phenyl)ethyl]amino]cyclopentyl]-2-pyridyl]piperazin-2-one]
4 | A (A: Eh < 33%) | A (A: Eh < 33%) | COc1cc([C@@H](C)N[C@H]2CC[C@@H](c3ccc(NCCS(N)(=O)=O)nc3)C2)ccc1F [Compound 113, 2-[[5-[(1R,3S)-3-[[(1R)-1-(4-Fluoro-3-methoxyphenyl)ethyl]amino]cyclopentyl]-2-pyridyl]amino]ethanesulfonamide]
5 | A (A: Eh < 33%) | A (A: Eh < 33%) | COc1cc([C@@H](C)N[C@H]2CC[C@@H](c3ccc(NCC(O)CO)nc3)C2)ccc1F (stereo partly drawn) [Compound 115, 3-[[5-[(1R,3S)-3-[[(1R)-1-(4-Fluoro-3-methoxyphenyl)ethyl]amino]cyclopentyl]-2-pyridyl]amino]propane-1,2-diol]
6 | A (A: Eh < 33%) | A (A: Eh < 33%) | COc1cc([C@@H](C)N[C@H]2CC[C@@H](c3ccc(N4CCN(C(C)=O)CC4)nc3)C2)ccc1F [Compound 116, 1-[4-[5-[(1R,3S)-3-[[(1R)-1-(4-Fluoro-3-methoxyphenyl)ethyl]amino]cyclopentyl]-2-pyridyl]piperazin-1-yl]ethanone]
7 | A (A: Eh < 33%) | B (B: 33% ≦ Eh ≦ 75%) | COc1cc([C@@H](C)N[C@H]2CC[C@@H](c3cnc(N4CCNC(=O)C4)nc3)C2)ccc1F [Compound 126, 4-[5-[(1R,3S)-3-[[(1R)-1-(4-Fluoro-3-methoxy-phenyl)ethyl]amino]cyclopentyl]pyrimidin-2-yl]piperazin-2-one]
8 | A (A: Eh < 33%) | A (A: Eh < 33%) | COc1cc([C@@H](C)N[C@H]2CC[C@@H](c3cnc(N4CCN(C(C)=O)CC4)nc3)C2)ccc1F.O=CO [Compound 127, 1-[4-[5-[(1R,3S)-3-[[(1R)-1-(4-Fluoro-3-methoxy-phenyl)ethyl]amino]cyclopentyl]pyrimidin-2-yl]piperazin-1-yl]ethanone]
